# Measured values from US8110543B2, “Anti-invasive and anti-angiogenic compositions” (Angstrom Pharmaceuticals, Inc., priority 1997, dated 2012).
# Entries after “also recorded” stand apart in the source; their conditions may differ.
# Tests used:
# HeLa = assay: In vitro proliferation, HeLa cells; type: cell-based
# Procedure: (§1) Å6 was also tested for its ability to inhibit the proliferation of cells other than endothelial cells in vitro.
# plasmin = plasmin (Homo sapiens, UniProt P00747); assay: Plasmin activity; type: biochemical
# [1] = test system: PC-3 and Mat B III tumor cells
# MDA-MB-231 = assay: In vitro proliferation, MDA-MB-231 cells; type: cell-based, human
# Procedure: as §1
# [2] = test system: MDA-MB-231 human breast cancer cells; assay: MDA-MB-231 GFP xenograft model; set-up: species or system mice; conditions: mouse, in vivo
# [3] = test system: matrix metalloproteinases MMP2 and MMP9; assay: EnzCheck gelatinase assay (MMP activity); type: biochemical; conditions: concentrations up to 100 μM; HT1080 supernatant activated with phenylmercuric acetate
# Procedure: HT1080 cells were grown in the presence of dexamethasone for 24 hrs and the supernatant collected and treated with phenylmercuric acetate to activate proMMPs.
# Mat B-III = assay: In vitro proliferation, Mat B-III cells; type: cell-based, rat
# Procedure: as §1
# uPAR = uPAR (Homo sapiens, UniProt Q03405); assay: Binding of uPA to uPAR
# [4] = test system: rat breast cancer line Mat B III; assay: Matrigel invasion assay, Mat B-III cells; type: cell-based; conditions: FIG. 1 (5 μM), FIG. 7, FIG. 8
# Procedure: Several peptides were tested for anti-invasive capacity in a Matrigel® invasion assay system as indicated above (Kleinman et al., supra; Parish et al., supra). Several invasive human tumor lines (PC-3, MDA-MB-231) and non-human tumors (3LL, Mat B-III) were examined. The rat breast cancer line Mat B III and the human prostate cancer line PC-3 were initially used.
# Tumor cells (5×10^5/mL, in a volume of 200 μL) in serum-free RPMI 1640 medium were added to a disposable transwell invasion chamber coated with Matrigel® (Becton Dickinson, Lincoln Park, N.J.). The invasion chambers were placed in 24-well tissue culture plates filled with serum-free RPMI-1640 and the plates were placed in an atmosphere of 5% CO2 in humidified air at 37° C. for 48-72 hours. The chambers were then removed, inverted, and the cells which had invaded (and now appeared on the bottom face of the invasion chamber) were fixed and stained using Diff-Quick® (Scientific Products). Cells were counted in 10 different fields on each filter and an average obtained.
# PC-3 cells = assay: PC-3 CAT metastasis model; type: in vivo, mice; conditions: minipump 100 mg/kg/day, 14 or 21 days
# Procedure: The compounds of this invention are also tested for inhibition of late metastasis using an experimental metastasis model (Crowley et al., 1993). Late metastasis involves the steps of attachment and extravasation of tumor cells, local invasion, seeding, proliferation and angiogenesis.
# Human prostatic carcinoma cells (PC-3) transfected with a reporter gene, preferably the green fluorescent protein (GFP) gene, but as an alternative with a gene encoding the enzymes chioramphenicol acetyl-transferase (CAT), luciferase or LacZ. This permits utilization of either of these markers (fluorescence detection of GFP or histochemical colorimetric detection of enzymatic activity) for following the fate of these cells. Cells are injected, preferably iv, and metastases identified after about 14 days, particularly in the lungs but also in regional lymph nodes, femurs and brain. This mimics the organ tropism of naturally occurring metastases of prostate cancer. For example, GFP-expressing PC-3 cells (1×10^6 cells per mouse) are injected iv into the tail veins of nude (nu/nu) mice. Animals are also implanted with mini-pumps (sub-dermally on the back) dispensing either the test compound (at least about 100 mg/kg/day) or vehicle. The animals are euthanized after 14 days and their organs prepared for histological examination. Single metastatic cells and foci are visualized and quantitated by fluorescence microscopy or light microscopic histochemistry or by grinding the tissue and quantitative colorimetric assay of the detectable label.
# In addition to Å6, other related peptide compounds described above are tested for efficacy in vivo in the 3LL model (as provided above) as well as the PC-3 model. PC-3 cells transfected with the gene encoding the enzyme chloramphenicol acetyl-transferase (CAT) are inoculated into mice i.v. at doses of 1×10^6 cells per mouse. These mice are implanted with a minipump, as above, which dispenses 100 mg/kg/day of the peptide or vehicle over a period of 14 or 21 days. At termination of treatment, the animals are euthanized and the tumor marker probe is assayed in regional lymph nodes, femurs, lungs, and brain.
# HepG2 = assay: In vitro proliferation, HepG2 cells; type: cell-based
# Procedure: as §1
# CHO = assay: In vitro proliferation, CHO cells; type: cell-based
# Procedure: as §1
# Mat B-III tumors = assay: Rat syngeneic Mat B-III breast cancer model; type: in vivo
# Procedure: The effects of the compounds are tested on tumor progression in a rat syngeneic model of breast cancer (Xing and Rabbani, 1996). Mat BIII rat breast tumor cells (1×10^6 cells in PBS, 0.1 mL per rat) are inoculated into the mammary fat pads of female Fisher rats. The test compound is dissolved in PBS (200 mM stock), sterile filtered and dispensed in vivo at a dose of up to about 100 mg/kg/day) using a 14-day Alza osmotic mini-pump implanted intraperitoneally at the time of inoculation. Control animals receive vehicle (PBS) alone. Animals are euthanized at day 14 and examined for metastasis in the spleen, lungs, liver, kidney and lymph nodes. In addition, the primary tumors are excised, quantitated, and prepared for immunohistochemistry.
# The rat syngeneic breast cancer system (Xing and Rabbani, 1996) employs Mat BIIIrat breast cancer cells. When Mat B-III cells (1×10^6 cells) are inoculated into the mammary fat pad of female Fisher rats, they form large tumors which metastasize to regional lymph nodes (LNs) and other distal sites within 14-20 days.
# Å6 was initially delivered prophylactically (infusion starting on the day of tumor inoculation) using an Alzet mini-pump that delivered 75 mg/kg/day. […] Metastasis was quantitated by counting the number of macroscopic foci without regard for their size.
# Estrogen receptor-positive Mat B-III tumors were used to test combination treatment with Å6 (75 mg/kg/day) and TAM (3 mg/kg/day). In contrast to previous studies, the Mat B-III tumors (inoculated in the mammary fat pad) were staged to 40-50 mm^3 prior to the initiation of treatment. Treatment was continued for 8 days during which time primary tumor growth was measured using calipers (FIG. 14).
# uPA = uPA (Homo sapiens, UniProt P00749); assay: uPA activity / activation of plasminogen; type: biochemical
# [5] = Alzet mini-pump 75 mg/kg/day from the day of tumor inoculation
# [6] = comparative analysis of related peptides
# Sequence of uPAR (Q03405 23-305 limits assumed): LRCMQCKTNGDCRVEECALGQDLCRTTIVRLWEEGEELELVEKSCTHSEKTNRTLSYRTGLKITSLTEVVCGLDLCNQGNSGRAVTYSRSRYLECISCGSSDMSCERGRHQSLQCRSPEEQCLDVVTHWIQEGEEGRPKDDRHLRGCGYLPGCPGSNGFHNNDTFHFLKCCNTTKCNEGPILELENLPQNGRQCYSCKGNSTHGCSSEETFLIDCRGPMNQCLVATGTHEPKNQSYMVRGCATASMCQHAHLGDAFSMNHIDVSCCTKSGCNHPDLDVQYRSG
# Sequence of plasmin (P00747 97-580 limits assumed, species assumed): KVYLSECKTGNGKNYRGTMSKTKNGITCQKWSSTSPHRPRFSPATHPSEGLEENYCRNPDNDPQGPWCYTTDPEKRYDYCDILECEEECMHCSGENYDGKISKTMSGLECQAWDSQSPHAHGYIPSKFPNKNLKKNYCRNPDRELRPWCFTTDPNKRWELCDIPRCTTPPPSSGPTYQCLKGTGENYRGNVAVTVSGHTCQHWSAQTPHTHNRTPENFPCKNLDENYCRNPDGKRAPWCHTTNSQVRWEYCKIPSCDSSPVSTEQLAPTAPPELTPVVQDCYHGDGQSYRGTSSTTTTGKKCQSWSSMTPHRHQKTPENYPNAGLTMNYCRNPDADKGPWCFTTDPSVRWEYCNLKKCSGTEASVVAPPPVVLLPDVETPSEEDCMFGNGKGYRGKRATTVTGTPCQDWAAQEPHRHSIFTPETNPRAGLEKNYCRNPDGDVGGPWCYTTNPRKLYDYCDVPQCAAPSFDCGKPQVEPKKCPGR
# Sequence of plasmin (P00747 581-810 limits assumed, species assumed): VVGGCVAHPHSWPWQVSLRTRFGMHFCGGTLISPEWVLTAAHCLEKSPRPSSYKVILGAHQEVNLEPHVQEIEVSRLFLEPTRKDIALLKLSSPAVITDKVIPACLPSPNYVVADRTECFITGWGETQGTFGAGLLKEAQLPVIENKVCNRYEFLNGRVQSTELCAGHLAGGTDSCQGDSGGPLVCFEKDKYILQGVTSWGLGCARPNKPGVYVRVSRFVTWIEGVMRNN
substance,measurement,setting,value
"Ac-KPSSPPEE-NH2 [Å6, CH3CO-Lys-Pro-Ser-Ser-Pro-Pro-Glu-Glu-NH2]","anti-proliferative effect, HeLa",HeLa,No anti-proliferative effects
same,effect on the activity of plasmin directly,plasmin,did not affect
same,cytotoxicity to the cells,[1],not cytotoxic
same,inhibition of cell proliferation,[1]; tumor cells of the invasion assay,nor did it inhibit cell proliferation
same,"anti-proliferative effect, MDA-MB-231",MDA-MB-231,No anti-proliferative effects
same,efficacy on tumors staged to 50-100 mm^3 prior to initiating treatment,[2],ineffective
same,inhibition of gelatinase activity,[3],did not inhibit
same,"anti-proliferative effect, Mat B-III",Mat B-III,No anti-proliferative effects
same,inhibition of binding of uPA to uPAR,uPAR,no effect
same,invasion of Mat B-III cells through Matrigel,[4],optimal; also recorded: inhibits the invasion
same,invasion of Mat B-III cells through Matrigel,[4]; listed as Ac-KPSSPPEE-Am,inhibited the invasion
same,"metastasis, PC-3 model",PC-3 cells,markedly inhibited
same,"anti-proliferative effect, HepG2",HepG2,No anti-proliferative effects
same,"anti-proliferative effect, CHO",CHO,No anti-proliferative effects
same,LN metastasis,Mat B-III tumors; [5],inhibition
same,tumor growth,Mat B-III tumors; [5],inhibition
same,"number of metastases in the spleen, lungs, liver, kidney and lymph nodes",Mat B-III tumors; [6],significant reduction
same,size of the primary tumor,Mat B-III tumors; [6],significant reduction
same,necrosis of the primary tumor periphery,"Mat B-III tumors; histological analysis, Å6-treated rats",50-75%
same,decrease in Factor VIII-positive foci,Mat B-III tumors; tumor sections,40-60%
same,TUNEL assay for apoptosis of tumor cells,Mat B-III tumors; Å6-treated groups,stained positive
same,effect on the activity of uPA directly,uPA,did not affect
same,inhibition of the activation of plasminogen,uPA,no effect
same,solubility,,> 100 mg/mL
